# According to patent publication US4347319A, “Microbiological epoxidation process” (priority 1980, dated 1982):
# Legend:
# Assay type in all cases: cell-based
# [1] = tested on: Methylomonas rosaceus (CRL M7P) NRRL B-11,213; assay: Oxidation by washed cell suspensions of methane-grown cells; details: 30° C., methane to methanol, alkene to 1,2-epoxide
# Procedure: (§1) The pH of the nutrient medium was adjusted to 7.0 by the addition of acid or base and 50 ml samples of the nutrient medium were charged into a plurality of 300 ml shaker flasks. The shaker flasks were inoculated with an inoculating loop of cells from an agar plate containing homogeneous colonies of the microorganisms on the plate (the purity of the isolates was confirmed by microscopic examination. The isolates had been maintained on agar plates under an atmosphere of methane and air having a 1:1 v/v gas ratio which had been transferred evey two weeks. The gaseous phase of the inoculated flasks was then replaced with a gas mixture comprised of methane and air having a ratio of 1:1 on a v/v basis. The inoculated flasks were sealed air tight and were incubated on a rotary shaker of orbital radius 2.5 cm at 250 rpm and at 30° C. for two days until turbidity in the medium had developed.
# (§2) The cells were harvested by centrifugation at 10,000×g. at 4° C. for 30 minutes. The cell pellet was washed twice with a 0.15 M phosphate buffer at a pH of 7.0 (containing 0.002 M MgCl2). The washed cells were then suspended in a 0.15 M phosphate buffer at pH 7.0.
# (§3) A 0.5 ml sample of each washed cell suspension (2 mg cells) was put into 10 ml vials at 4° C. which were sealed with a rubber cap. The gaseous phase of the vials was removed with vacuum and then was replaced with a gas mixture of the oxidative substrate (e.g., methane) and oxygen at a 1:1 v/v ratio. The vials were then incubated at 30 ° C. on a rotary shaker at 300 rpm. Samples of product (3 μl) were withdrawn periodically with a microsyringe and the products were analyzed by gas chromatography (ionization flame detector column).
# (§4) The newly discovered and isolated microorganism strains of the present invention were each grown aerobically in the presence of methane in the manner described above. The methane-grown microbial cells were then washed, recovered and put to use in oxidizing an oxidative substrate by the procedure described above except in the case of a liquid substrate 10 μl of the substrate were used.
# [2] = tested on: Methylococcus minimus (CRL 24 PM12) NRRL B-11,220; assay: as above; details: methane-grown washed cells, 30° C.; methane to methanol, alkene to 1,2-epoxide
# Procedure: as §1, §2, §3, §4
# [3] = tested on: Methylomonas methanica (CRL M4P) NRRL B-11,205; assay: as above; details: methane-grown washed cells, 30° C.; methane to methanol, alkene to 1,2-epoxide
# Procedure: as §1, §2, §3, §4
# [4] = tested on: Methylomonas rubrum (CRL 20 PM6) NRRL B-11,211; assay: as above; details: methane-grown washed cells, 30° C.; methane to methanol, alkene to 1,2-epoxide
# Procedure: as §1, §2, §3, §4
# [5] = tested on: Methylomonas streptobacterium (CRL 17 PM3) NRRL B-11,208; assay: as above; details: methane-grown washed cells, 30° C.; methane to methanol, alkene to 1,2-epoxide
# Procedure: as §1, §2, §3, §4
# [6] = tested on: Methylococcus capsulatus (CRL 25 PM13) NRRL B-11,221; assay: as above; details: methane-grown washed cells, 30° C.; methane to methanol, alkene to 1,2-epoxide
# Procedure: as §1, §2, §3, §4
# [7] = tested on: Methylobacter chroococcum (CRL M6) NRRL B-11,214; assay: as above; details: methane-grown washed cells, 30° C.; methane to methanol, alkene to 1,2-epoxide
# Procedure: as §1, §2, §3, §4
# [8] = tested on: Methylomonas methanica (CRL 21 PM7) NRRL B-11,206; assay: as above; details: methane-grown washed cells, 30° C.; methane to methanol, alkene to 1,2-epoxide
# Procedure: as §1, §2, §3, §4
# [9] = tested on: Methylomonas rubrum (CRL M6P) NRRL B-11,210; assay: as above; details: methane-grown washed cells, 30° C.; methane to methanol, alkene to 1,2-epoxide
# Procedure: as §1, §2, §3, §4
# [10] = tested on: Methylobacter chroococcum (CRL 23 PM8) NRRL B-11,215; assay: as above; details: methane-grown washed cells, 30° C.; methane to methanol, alkene to 1,2-epoxide
# Procedure: as §1, §2, §3, §4
# [11] = tested on: Methylobacter vinelandii (CRL M5Y) NRRL B-11,218; assay: as above; details: methane-grown washed cells, 30° C.; methane to methanol, alkene to 1,2-epoxide
# Procedure: as §1, §2, §3, §4
# [12] = tested on: Methylomonas agile (CRL 22 PM9) NRRL B-11,209; assay: as above; details: methane-grown washed cells, 30° C.; methane to methanol, alkene to 1,2-epoxide
# Procedure: as §1, §2, §3, §4
# [13] = tested on: Methylomonas albus (CRL M8Y) NRRL B-11,207; assay: as above; details: methane-grown washed cells, 30° C.; methane to methanol, alkene to 1,2-epoxide
# Procedure: as §1, §2, §3, §4
# [14] = tested on: Methylocystis parvus (CRL 18 PM4) NRRL B-11,204; assay: as above; details: methane-grown washed cells, 30° C.; methane to methanol, alkene to 1,2-epoxide
# Procedure: as §1, §2, §3, §4
# [15] = tested on: Methylococcus capsulatus (CRL M1) NRRL B-11,219; assay: as above; details: methane-grown washed cells, 30° C.; methane to methanol, alkene to 1,2-epoxide
# Procedure: as §1, §2, §3, §4
# [16] = tested on: Methylobacterium organophilum (CRL 26 R6) NRRL B-11,222; assay: as above; details: methane-grown washed cells, 30° C.; methane to methanol, alkene to 1,2-epoxide
# Procedure: as §1, §2, §3, §4
# [17] = tested on: Methylosinus sporium (CRL 16 PM2) NRRL B-11,203; assay: as above; details: methane-grown washed cells, 30° C.; methane to methanol, alkene to 1,2-epoxide
# Procedure: as §1, §2, §3, §4
# [18] = tested on: Methylobacter bovis (CRL 19 PM5) NRRL B-11,217; assay: as above; details: methane-grown washed cells, 30° C.; methane to methanol, alkene to 1,2-epoxide
# Procedure: as §1, §2, §3, §4
# [19] = tested on: Methylosinus trichosporium (CRL 15 PM1) NRRL B-11,202; assay: as above; details: methane-grown washed cells, 30° C.; methane to methanol, alkene to 1,2-epoxide
# Procedure: as §1, §2, §3, §4
# [20] = tested on: Methylomonas rosaceus (CRL M10P) NRRL B-11,212
# Procedure: as §1, §2, §3, §4
# [21] = tested on: Methylobacter bovis (CRL M1Y) NRRL B-11,216; assay: Oxidation by washed cell suspensions of methane-grown cells; details: methane-grown washed cells, 30° C.; methane to methanol, alkene to 1,2-epoxide
# Procedure: as §1, with “The inoculated flasks were sealed air tight and were incubated on a rotary shaker of orbital radius 2.5 cm at 250 rpm and at 30° C. for two days until turbidity in the medium had developed.” left out
# as §2, §3, §4
# [22] = tested on: methane-grown methylotrophic microorganisms; assay: Epoxidation by methane-grown cells of the strains of the invention
# Procedure: as §1
# The cells were harvested by centrifugation at 10,000×g. at 4° C. for 30 minutes. The cell pellet was washed twice with a 0.15 M phosphate buffer at a pH of 7.0 (containing 0.002 M MgCl2). […]
# A 0.5 ml sample of each washed cell suspension (2 mg cells) was put into 10 ml vials at 4° C. which were sealed with a rubber cap. […] Samples of product (3 μl) were withdrawn periodically with a microsyringe and the products were analyzed by gas chromatography (ionization flame detector column). […]
structure (smiles),measurement,setting,value
C=C [Ethylene],Oxidative Conversion Rates,[1],2.9 μmole/hr/mg protein
same,Oxidative Conversion Rates,[2],1.2 μmole/hr/mg protein
same,Oxidative Conversion Rates,[3],1.0 μmole/hr/mg protein
same,Oxidative Conversion Rates,[4],1.1 μmole/hr/mg protein
same,Oxidative Conversion Rates,[5],0.7 μmole/hr/mg protein
same,Oxidative Conversion Rates,[6],0.8 μmole/hr/mg protein
same,Oxidative Conversion Rates,[7],1.6 μmole/hr/mg protein
same,Oxidative Conversion Rates,[8],2.1 μmole/hr/mg protein
same,Oxidative Conversion Rates,[9],0.7 μmole/hr/mg protein
same,Oxidative Conversion Rates,[10],1.2 μmole/hr/mg protein
same,Oxidative Conversion Rates,[11],1.2 μmole/hr/mg protein
same,Oxidative Conversion Rates,[12],2.2 μmole/hr/mg protein
same,Oxidative Conversion Rates,[13],1.8 μmole/hr/mg protein
same,Oxidative Conversion Rates,[14],0.9 μmole/hr/mg protein
same,Oxidative Conversion Rates,[15],5.7 μmole/hr/mg protein
same,Oxidative Conversion Rates,[16],0.9 μmole/hr/mg protein
same,Oxidative Conversion Rates,[17],1.3 μmole/hr/mg protein
same,Oxidative Conversion Rates,[18],1.3 μmole/hr/mg protein
same,Oxidative Conversion Rates,[19],2.5 μmole/hr/mg protein
same,Oxidative Conversion Rates,[20],4.7
same,Oxidative Conversion Rates,[21],0.64 μmole/hr/mg protein
C=CCCCC [hexene-1],epoxide product formation,[22],did not produce any detectable epoxide product
